target: T1, SWI/SNF-related matrix-associated actin-dependent regulator of chromatin subfamily A member 2 (Homo sapiens, UniProt P51531); assay: Inhibition of SMARCA2 (unknown origin)
T1 sequence (P51531 whole entry): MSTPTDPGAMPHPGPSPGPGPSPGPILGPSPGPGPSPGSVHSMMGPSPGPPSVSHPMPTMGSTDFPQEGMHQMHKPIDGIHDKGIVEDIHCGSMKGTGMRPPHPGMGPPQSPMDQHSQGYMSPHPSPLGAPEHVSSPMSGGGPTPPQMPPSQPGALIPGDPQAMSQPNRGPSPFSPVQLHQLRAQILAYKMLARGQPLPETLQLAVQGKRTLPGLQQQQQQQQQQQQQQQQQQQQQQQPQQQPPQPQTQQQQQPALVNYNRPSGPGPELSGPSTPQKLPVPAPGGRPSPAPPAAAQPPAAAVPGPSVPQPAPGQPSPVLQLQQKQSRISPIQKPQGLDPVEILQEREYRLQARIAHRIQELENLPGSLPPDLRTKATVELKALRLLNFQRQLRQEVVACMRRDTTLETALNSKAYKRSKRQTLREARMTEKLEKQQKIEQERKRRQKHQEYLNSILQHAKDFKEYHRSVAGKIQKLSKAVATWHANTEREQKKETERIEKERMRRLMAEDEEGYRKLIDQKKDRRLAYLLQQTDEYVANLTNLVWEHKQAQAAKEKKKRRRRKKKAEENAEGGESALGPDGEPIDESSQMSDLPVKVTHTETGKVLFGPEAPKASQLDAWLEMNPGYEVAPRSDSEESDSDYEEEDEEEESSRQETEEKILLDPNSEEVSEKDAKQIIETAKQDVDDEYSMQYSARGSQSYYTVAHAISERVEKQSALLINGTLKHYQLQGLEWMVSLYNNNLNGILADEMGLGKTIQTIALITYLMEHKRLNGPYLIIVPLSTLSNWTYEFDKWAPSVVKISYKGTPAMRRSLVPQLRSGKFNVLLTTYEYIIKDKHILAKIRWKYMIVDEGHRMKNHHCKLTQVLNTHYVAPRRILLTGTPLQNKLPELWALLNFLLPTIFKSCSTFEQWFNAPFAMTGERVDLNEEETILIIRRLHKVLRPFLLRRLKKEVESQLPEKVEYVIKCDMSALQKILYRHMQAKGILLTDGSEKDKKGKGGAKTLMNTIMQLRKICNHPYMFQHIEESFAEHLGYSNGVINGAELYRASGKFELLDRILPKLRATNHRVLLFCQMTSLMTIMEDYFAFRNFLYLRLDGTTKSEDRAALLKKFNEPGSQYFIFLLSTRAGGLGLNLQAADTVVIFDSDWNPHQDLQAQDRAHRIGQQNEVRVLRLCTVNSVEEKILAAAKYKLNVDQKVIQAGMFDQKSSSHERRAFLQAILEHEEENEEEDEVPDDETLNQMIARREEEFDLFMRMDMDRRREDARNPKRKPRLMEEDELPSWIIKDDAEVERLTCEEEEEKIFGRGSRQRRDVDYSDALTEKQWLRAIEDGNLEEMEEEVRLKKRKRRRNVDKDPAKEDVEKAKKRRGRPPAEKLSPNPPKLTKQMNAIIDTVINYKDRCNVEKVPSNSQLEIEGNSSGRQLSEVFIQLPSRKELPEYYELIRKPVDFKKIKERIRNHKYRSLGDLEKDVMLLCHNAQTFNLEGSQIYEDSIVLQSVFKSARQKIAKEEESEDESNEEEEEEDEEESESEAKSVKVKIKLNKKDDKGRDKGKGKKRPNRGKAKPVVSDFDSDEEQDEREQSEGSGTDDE

COc1cc(CNCc2ccccn2)ccc1OCc1cccc(Cl)c1 and COc1cc(CNCc2ccccn2)ccc1OCc1ccccc1F are within 1.5-fold of each other in IC50: 9.2 µM for the first, 9 µM for the second.

First: COc1cc(CNCc2ccccn2)cc(Cl)c1OCc1ccc(Cl)cc1
Second: COc1cc(CNCc2ccccn2)cc(Cl)c1OCc1ccc(Cl)cc1Cl
The IC50 of the first is 3.3-fold higher: 30.2 µM for the first, 9.1 µM for the second. The second is the more potent here.

Compound COc1cc(CNCc2ccccn2)ccc1OCc1cccs1 has an IC50 of 17 µM.

target: T1, SWI/SNF-related matrix-associated actin-dependent regulator of chromatin subfamily A member 2; assay: Induction of thermal stabilization of SMARCA2 (unknown origin) assessed as change in melting temperature by fluorescence based thermal shift assay

In the case of O=C(O)c1ccccc1O, the ΔTm is reported as 1.3 °C.

Reference: ChEMBL document CHEMBL6134801, “SMARCA2 protein: Structure, function and perspectives of drug design” (Eur J Med Chem, 2025)
